# Measurements: US10821115B2, “Compounds that inhibit Mcl-1 protein” (priority 2017, dated 2020)
# Where two headings read alike, the source gives them in different places.
# Legend:
# [1] = test system: human multiple myeloma cell line, OPM-2; test: Cell viability assay (OPM-2 10 FBS), CellTiter-Glo; format: cell-based
# How it was run: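 Steps: plate cells at 3000/well in 10% FBS growth medium, add serially diluted compound, incubate 16 h at 37 °C with 5% CO2, add detection reagent and read luminescence after 25 min. A 4-parameter logistic model gives IC50.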
# [2] = biological target: recombinant human Mcl-1 (residues 171-327) / Bim interaction (Homo sapiens (Human), UniProt Q07820); test: biochemical; format: binding; details: read-out: Mcl-1 HTRF IC50
# [3] = Homo sapiens, OPM-2, 16 h, read-out: OPM-2 10% FBS IC50 IP, OPM-2 cells, 10% FBS, 16 h incubation
# [4] = 0.1 nM Mcl-1(171-327), 0.05 nM biotin-Bim (51-76)
# [5] = read-out: OPM-2 10% FBS IC50 IP, OPM-2 cells, 10% FBS, 16 h, CellTiter-Glo
# [6] = TR-FRET, Mcl-1(171-327) / biotin-Bim (51-76)
# [7] = Homo sapiens, OPM-2, 16 h, read-out: OPM-2 10% FBS IC50 IP, OPM-2 cells, 10% FBS, 16 h, CellTiter-Glo
# recombinant human Mcl-1 (residues 171-327) / Bim interaction, sequence (Q07820 171-327): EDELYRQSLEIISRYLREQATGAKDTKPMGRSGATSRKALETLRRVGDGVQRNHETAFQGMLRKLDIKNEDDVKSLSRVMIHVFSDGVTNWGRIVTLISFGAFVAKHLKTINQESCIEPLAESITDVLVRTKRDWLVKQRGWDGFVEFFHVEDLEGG
Compound,"IC50 [2, 6]","IC50 [1, 7]",further results
"CO[C@@]1(CN2CCN(Cc3ncon3)CC2)/C=C/C[C@H](C)[C@@H](C)S(=O)(=O)NC(=O)c2ccc3c(c2)N(C[C@@H]2CC[C@H]21)C[C@@]1(CCCc2cc(Cl)ccc21)CO3 [Example 321, (1S,3′R,6′R,7′S,8′E,11′S,12′R)-6-chloro-7′-methoxy-11′,12′-climethyl-7′-((4-(1,2,4-oxadiazol-3-ylmethyl)-1-piperazinyl)methyl)-3,4-dihydro-2H,15′H-spiro[naphthalene-1,22′-[20]oxa[13]thia[1,14]diazatetracyclo [14.7.2.0~3,6~.0~19,24~]pentacosa[8,16,18,24]tetraen]-15′-one 13′,13′-dioxide]",–,–,"IC50 [1, 3]: 92 nM; IC50 [2, 4]: 0.145 nM"
"C[C@H](C(=O)O)[C@@]1(O)/C=C/C[C@H](C)[C@@H](C)S(=O)(=O)NC(=O)c2ccc3c(c2)N(C[C@@H]2CC[C@H]21)C[C@@]1(CCCc2cc(Cl)ccc21)CO3 (single isomer, unassigned) [Example 100120]",0.067 nM,–,"IC50 [1, 5]: 635 nM"
"C[C@@H]1[C@@H](C)C/C=C/[C@@](O)([C@@H]2CCN(C)C2=O)[C@@H]2CC[C@H]2CN2C[C@@]3(CCCc4cc(Cl)ccc43)COc3ccc(cc32)C(=O)NS1(=O)=O [Example 100137, (1S,3′R,6′R,7′S,8′E,11′S,12′R)-6-chloro-7′-hydroxy-11′,12′-dimethyl-7′-((3S)-1-methyl-2-oxo-3-pyrrolidinyl)-3,4-dihydro-2H,15′H-spiro[naphthalene-1,22′-[20]oxa[13]thia[1,14]diazatetracyclo [14.7.2.0~3,6~.0~19,24~]pentacosa[8,16,18,24]tetraen]-15′-one 13′,13′-dioxide]",0.365 nM,–,"IC50 [1, 5]: 2820 nM"
"C[C@@H]1[C@@H](C)C/C=C/[C@@](O)(C#CCC2CCOCC2)[C@@H]2CC[C@H]2CN2C[C@@]3(CCCc4cc(Cl)ccc43)COc3ccc(cc32)C(=O)NS1(=O)=O [Example 100432, (1S,3′R,6′R,7′S,8′E,11′S,12′R)-6-chloro-7′-hydroxy-11′,12′-dimethyl-7′-(3-(tetrahydro-2H-pyran-4-yl)-1-propyn-1-yl)-3,4-dihydro-2H,15′H-spiro[naphthalene-1,22′-[20]oxa[13]thia[1,14]diazatetracyclo [14.7.2.0~3,6~.0~19,24~]pentacosa[8,16,18,24]tetraen]-15′-one 13′,13′-dioxide]",0.228 nM,711 nM,–
"CC#C[C@]1(O)CCC[C@H](C)[C@@H](C)S(=O)(=O)NC(=O)c2ccc3c(c2)N(C[C@@H]2CC[C@H]21)C[C@@]1(CCCc2cc(Cl)ccc21)CO3 [Example 100268, (1S,3′R,6′R,7′S,11′S,12′R)-6-chloro-7′-hydroxy-11′,12′-dimethyl-7′-(1-propyn-1-yl)-3,4-dihydro-2H,15′H-spiro[naphthalene-1,22′-[20]oxa[13]thia[1,14]diazatetracyclo [14.7.2.0~3,6~.0~19,24~]pentacosa[16,18,24]trien]-15′-one 13′,13′-dioxide]",–,–,"IC50 [1, 5]: 3810 nM; IC50 [2]: 3.44 nM"
"CNC[C@@]1(OC)/C=C/C[C@H](C)[C@@H](C)S(=O)(=O)NC(=O)c2ccc3c(c2)N(C[C@@H]2CC[C@H]21)C[C@@]1(CCCc2cc(Cl)ccc21)CO3 [Example 70, (1S,3′R,6′R,7′R,8′E,11′S,12′R)-6-chloro-7′-methoxy-11′,12′-dimethyl-7′-((methylamino)methyl)-3,4-dihydro-2H,15′H-spiro[naphthalene-1,22′-[20]oxa[13]thia[1,14]diazatetracyclo [14.7.2.0~3,6~.0~19,24~]pentacosa[8,16,18,24]tetraen]-15′-one 13′,13′-dioxide]",–,–,"IC50 [1, 3]: 3140 nM; IC50 [2, 4]: 1.33 nM"
"C[C@@H]1[C@@H](C)C/C=C/[C@@](O)(c2cccnc2)[C@@H]2CC[C@H]2CN2C[C@@]3(CCCc4cc(Cl)ccc43)COc3ccc(cc32)C(=O)NS1(=O)=O [Example 100384, (1S,3′R,6′R,7′S,8′E,11′S,12′R)-6-chloro-7′-hydroxy-11′,12′-dimethyl-7′-(3-pyridinyl)-3,4-dihydro-2H,15′H-spiro[naphthalene-1,22′-[20]oxa[13]thia[1,14]diazatetracyclo [14.7.2.0~3,6~.0~19,24~]pentacosa[8,16,18,24]tetraen]-15′-one 13′,13′-dioxide]",0.821 nM,729 nM,–
"C[C@@H]1[C@@H](C)CCC[C@](O)(COCCN(C)C)[C@@H]2CC[C@H]2CN2C[C@@]3(CCCc4cc(Cl)ccc43)COc3ccc(cc32)C(=O)NS1(=O)=O [Example 100195, (1S,3′R,6′R,7′R,11′S,12′R)-6-chloro-7′-((2-(dimethylamino)ethoxy)methyl)-7′-hydroxy-11′,12′-dimethyl-3,4-dihydro-2H,15′H-spiro[naphthalene-1,22′-[20]oxa[13]thia[1,14]diazatetracyclo [14.7.2.0~3,6~.0~19,24~]pentacosa[16,18,24]trien]-15′-one 13′,13′-dioxide]",1.07 nM,625 nM,–
"Cc1ncc([C@]2(O)/C=C/C[C@H](C)[C@@H](C)S(=O)(=O)NC(=O)c3ccc4c(c3)N(C[C@@H]3CC[C@H]32)C[C@@]2(CCCc3cc(Cl)ccc32)CO4)n1C (single isomer, unassigned) [Example 100559]",0.113 nM,1030 nM,–
"C[C@@H]1[C@@H](C)C/C=C/[C@](O)(c2cnccn2)[C@@H]2CC[C@H]2CN2C[C@@]3(CCCc4cc(Cl)ccc43)COc3ccc(cc32)C(=O)NS1(=O)=O [Example 100383, (1S,3′R,6′R,7′R,8′E,11′S,12′R)-6-chloro-7′-hydroxy-11′,12′-dimethyl-7′-(2-pyrazinyl)-3,4-dihydro-2H,15′H-spiro[naphthalene-1,22′-[20]oxa[13]thia[1,14]diazatetracyclo [14.7.2.0~3,6~.0~19,24~]pentacosa[8,16,18,24]tetraen]-15′-one 13′,13′-dioxide]",0.264 nM,3430 nM,–
"CO[C@@]1(c2cccc(F)n2)/C=C/C[C@H](C)[C@@H](C)S(=O)(=O)NC(=O)c2ccc3c(c2)N(C[C@@H]2CC[C@H]21)C[C@@]1(CCCc2cc(Cl)ccc21)CO3 (single isomer, unassigned) [Example 100339]",0.186 nM,1380 nM,–
"(1 S,3′R,6′R,7′S,8′E, 11′S,12′R)-6-chloro-11′,12′-dimethyl-7′-(2-methylpropoxy)-7′-((4-(3-oxetanyl)-1-piperazinyl)methyl)-3,4-dihydro-2H,15′H-spiro[naphthalene-1,22′-[20]oxa[13]thia[1,14]diazatetracyclo[14.7.2.0-3,6˜.0˜19,24˜]pentacosa[8,16,18,24]tetraen]-15′-one 13′,13′-dioxide [Example 348]",–,–,"IC50 ([1]; read-out: OPM-2 10% FBS IC50 IP, OPM-2 cells, 10% FBS, 16 h incubation): 5360 nM; IC50 [2, 4]: 2.62 nM"
"C[C@@H]1[C@@H](C)CCC[C@](O)(C[C@H]2CCCN(C)C2)[C@@H]2CC[C@H]2CN2C[C@@]3(CCCc4cc(Cl)ccc43)COc3ccc(cc32)C(=O)NS1(=O)=O (single isomer, unassigned) [Example 100399]",0.28 nM,2810 nM,–
"C[C@@H]1[C@@H](C)C/C=C/[C@@](O)(CS(C)(=O)=O)[C@@H]2CC[C@H]2CN2C[C@@]3(CCCc4cc(Cl)ccc43)COc3ccc(cc32)C(=O)NS1(=O)=O [Example 100072, (1S,3′R,6′R,7′S,8′E,11′S,12′R)-6-chloro-7′-hydroxy-11′,12′-dimethyl-7′-((methylsulfonyl)methyl)-3,4-dihydro-2H,15′H-spiro[naphthalene-1,22′-[20]oxa[13]thia[1,14]diazatetracyclo [14.7.2.0~3,6~.0~19,24~]pentacosa[8,16,18,24]tetraen]-15′-one 13′,13′-dioxide]",0.451 nM,1720 nM,–
"C[C@@H]1[C@@H](C)C/C=C/[C@@](O)(c2ncccn2)[C@@H]2CC[C@H]2CN2C[C@@]3(CCCc4cc(Cl)ccc43)COc3ccc(cc32)C(=O)NS1(=O)=O [Example 100275, (1S,3′R,6′R,7′S,8′E,11′S,12′R)-6-chloro-7′-hydroxy-11′,12′-dimethyl-7′-(2-pyrimidinyl)-3,4-dihydro-2H,15′H-spiro[naphthalene-1,22′-[20]oxa[13]thia[1,14]diazatetracyclo [14.7.2.0~3,6~.0~19,24~]pentacosa[8,16,18,24]tetraen]-15′-one 13′,13′-dioxide]",0.113 nM,309 nM,–
"C[C@@H]1[C@@H](C)C/C=C/[C@](O)([C@H](O)C(=O)N(C)C)[C@@H]2CC[C@H]2CN2C[C@@]3(CCCc4cc(Cl)ccc43)COc3ccc(cc32)C(=O)NS1(=O)=O [Example 100290, (2S)-2-((1S,3′R,6′R,7′R,8′E,11′S,12′R)-6-chloro-7′-hydroxy-11′,12′-dimethyl-13′,13′-dioxido-15′-oxo-3,4-dihydro-2H-spiro[naphthalene-1,22′-[20]oxa[13]thia[1,14]diazatetracyclo [14.7.2.0~3,6~.0~19,24~]pentacosa[8,16,18,24]tetraen]-7′-yl)-2-hydroxy-N,N-dimethylethanamide]",0.116 nM,259 nM,–
"COc1cccc([C@]2(O)/C=C/C[C@H](C)[C@@H](C)S(=O)(=O)NC(=O)c3ccc4c(c3)N(C[C@@H]3CC[C@H]32)C[C@@]2(CCCc3cc(Cl)ccc32)CO4)n1 [Example 100191, (1S,3′R,6′R,7′S,8′E,11′S,12′R)-6-chloro-7′-hydroxy-7′-(6-methoxy-2-pyridinyl)-11′,12′-dimethyl-3,4-dihydro-2H,15′H-spiro[naphthalene-1,22′-[20]oxa[13]thia[1,14]diazatetracyclo [14.7.2.0~3,6~.0~19,24~]pentacosa[8,16,18,24]tetraen]-15′-one 13′,13′-dioxide]",1.6 nM,557 nM,–
